Laboratory results as given in patent US11884647B2, “Compounds and methods for targeting pathogenic blood vessels” (THE REGENTS OF THE UNIVERSITY OF CALIFORNIA, priority 2019, dated 2024).

Test system: tumor endothelial cells (LL/2 lung cancer tumor)
Assay: Lung LL2 ex vivo model of tumor angiogenesis
Assay type: cell-based, mouse
Details: Lung LL2 ex vivo; Conc. 20 μm; 48 hrs
Method: This example describes a procedure to prepare a primary tumor angiogenesis model for assessing the efficacy of anti-cancer candidate agents.
1. The day before the experiment, spray all necessary tools with 70% ethanol and sterilize them under UV light overnight, including blade, dissecting and micro-dissecting scissors and […]. Place 24-well dishes at 4° C. to pre-chill plates and thaw Matrigel 24 hours before tumor dissection.
2. Spray 70% ethanol on working bench. Prepare two sterile petri dishes with 10 mL sterile PBS. Steps 3 and 4 are for mouse tumor models. For fresh human tumor, directly go to step 5.
3. Euthanize the tumor-bearing mice. Spray 70% ethanol on the mouse and remove the tumor using sterilized dissecting tools (avoid the fur). Rinse the tumor in petri dish with sterile PBS to remove ethanol and fur. Transfer the tumor to a new petri dish with PBS for dissection. Place the dish on ice.
4. Using pre-chilled sterile pipet tips to seed regular Matrigel in 24 well plates on ice. Matrigel (30 μL) is dropped in the middle of each well without touching the edge of the well (avoid introducing bubbles if possible).
5. Cut the tumor in halves using the sterile blade. Identify and isolate healthy tumor tissue that is not necrotic and is within the tumor capsule. Cut the healthy tumor tissue into small pieces. For instance, a suitable size for the tumor tissue is 0.5 mm (H)×0.5 mm (L)×0.3 mm (D) with a total volume of 0.075 mm^3.
6. Gently transfer and embed each tumor piece in the Matrigel drop in the 24-well plate. Place the embedded piece in the bottom and middle of each Matrigel drop. Keep the plate on ice all the time.
7. After seeding the tumor pieces, plates are incubated in a 37° C. cell culture incubator without medium for 10 minutes in order for the Matrigel to solidify.
8. Endothelial Growth Medium (0.5 mL) is added to each well and incubated at 37° C. with 5% CO2. Wait until the new endothelial cells have grown out of the tumor or are larger than 3 mm in diameter until treatment. This usually takes 4 days for the LL2 Lewis lung cancer model and 7 days for the CT26 colon cancer model. For human tumor models, the growth time is typically 2-3 weeks, depending on the tumor type. Media is changed every 4 days during prolonged culture. Typically, when the tumor tissue grows to 2 mm in diameter, it is good for drug testing. A size of about 3 mm in diameter can make visualization easier.
9. When the assay is ready to be analyzed for cell death (e.g., 48 hours after drug addition), prepare the dye mixture by mixing 6 μL of green dye to stain live cells (5 mg/mL Fluorescein diacetate or FDA in DMSO) with 30 μL of red dye (2.5 mg/mL Propidium iodide or PI in PBS) to stain dead cells in an Eppendorf tube. The FDA dye needs to be stored frozen in a −20° C. freezer because it has a labile ester bond.
10. Add 1 μL of the dye mixture to each well of the 24-well dish. It is usually performed one 24-well dish at a time given the amount of time needed to take pictures (the green dye is not as stable in the cells in the long term).
11. Gently rock the dish a few times to mix the dye with the media in the wells and incubate the dish at 37° C. for 10 min (too long incubation can make the green signal too intense).
12. Wash each well with 0.5 mL of sterile PBS and then add 0.5 mL of phenol red free SFM to each well. Alternatively 0.5 mL of regular Endothelial Cell Growth Media can be added to each well if this well needs to be continuously maintained after the experiment.
13. Look through all wells on an inverted microscope using the 2× objective lens to observe morphological changes.
14. Taking pictures in the red and green channels would allow not only the recording of the result but also more accurate quantitation of the result. To take pictures for all the wells, first pick a well that has robust red and green signals. […]

Row | Compound | 48 hrs (morphology observations after 48 hours)
1 | 4-([1,4′:1′,4″-terpiperidin]-1″-yl)-6- (methyl(λ^1-oxidanyl)-λ^3-sulfanyl)-3-((4- (tetradecyloxy)phenyl)sulfonyl)quinoline [compound 347] | *** (100% of endothelial cells vesicularize in cell shape)

Same assay, conditions: Lung LL2 ex vivo; Conc. 20 μm; drug treatment two days

Row | Compound | Cell death [%]
2 | 4-([1,4′:1′,4″-terpiperidin]-1″-yl)-6- (methyl(λ^1-oxidanyl)-λ^3-sulfanyl)-3-((4- (tetradecyloxy)phenyl)sulfonyl)quinoline [compound 347] | 30
3 | COc1ccc(S(=O)(=O)c2cnc3ccc(CC#N)cc3c2N2CCC(N3CCCCC3)CC2)cc1 [compound 115, 2-(4-([1,4′-bipiperidin]-1′-yl)-3-((4-methoxyphenyl)sulfonyl)quinolin-6-yl)acetonitrile] | 10

Same assay, conditions: Lung LL2 ex vivo; Conc. 40 μm; drug treatment two days

Row | Compound | Cell death [%]
4 | CCCCOc1ccc(S(=O)(=O)c2cnc3ccc(SC)cc3c2N2CCCN(CC3(O)CCCC3)CC2)cc1 [compound 354, 1-((4-(3-((4-butoxyphenyl)sulfonyl)-6-(methylthio)quinolin-4-yl)-1,4-diazepan-1-yl)methyl)cyclopentan-1-ol] | 0
5 | CCCCOc1ccc(S(=O)(=O)c2cnc3ccc(SC)cc3c2N2CCC3C(COCCN3CC(C)C)C2)cc1 (centres unmarked) [compound 352, 7-(3-((4-butoxyphenyl)sulfonyl)-6-(methylthio)quinolin-4-yl)-1-isobutyldecahydropyrido[4,3-e][1,4]oxazepine] | 100

Same assay, conditions: Mus musculus, Endothelial cell, 48 h, read-out: Cell death

Row | Compound | cytotoxicity at 20 µM [%] | cytotoxicity at 10 µM [%] | cytotoxicity at 40 µM [%]
6 | CCCCCCCCCCCCCCOc1ccc(S(=O)(=O)c2cnc3ccc([S+](C)[O-])cc3c2N2CCC(N3CCC(N4CCC(O)CC4)CC3)CC2)cc1F (centres unmarked) [compound 373, 1″-(3-((3-fluoro-4-(tetradecyloxy)phenyl)sulfonyl)-6-(methylsulfinyl)quinolin-4-yl)-[1,4′:1′,4″- terpiperidin]-4-ol] | 20 | – | –
7 | CCCCCCCCCCOc1ccc(S(=O)(=O)c2cnc3ccc([S+](C)[O-])cc3c2N2CCC(N3CCN(CCO)CC3)CC2)cc1 (centres unmarked) [compound 268, 2-(4-(1-(3-((4-(decyloxy)phenyl)sulfonyl)-6-(methylsulfinyl)quinolin-4-yl)piperidin-4-yl)piperazin-1-yl)ethan-1-ol] | 50 | – | –
8 | CCCCCCCCCCCCOc1ccc(S(=O)(=O)c2cnc3ccc([S+](C)[O-])cc3c2N2CCC(N3CCC(N4CCCCC4)CC3)CC2)cc1F (centres unmarked) [compound 363, 4-([1,4′:1′,4″-terpiperidin]-1″-yl)-3-((4-(dodecyloxy)-3-fluorophenyl)sulfonyl)-6-(methylsulfinyl)quinoline] | 30 | – | –
9 | CCCCCCCCCCCCCCOc1ccc(S(=O)(=O)c2cnc3ccc([S+](C)[O-])cc3c2N2CCC(N3CCC(N4CCN(CCO)CC4)CC3)CC2)cc1 (centres unmarked) [compound 345, 2-(4-(1′-(6-(methylsulfinyl)-3-((4-(tetradecyloxy)phenyl)sulfonyl)quinolin-4-yl)-[1,4′-bipiperidin]-4-yl)piperazin-1-yl)ethan-1-ol] | 50 | – | –
10 | CCCCCCCCCCCCCCCCOc1ccc(S(=O)(=O)c2cnc3ccc([S+](C)[O-])cc3c2N2CCC(N3CCN(CCO)CC3)CC2)cc1 (centres unmarked) [compound 376, 2-(4-(1-(3-((4-(hexadecyloxy)phenyl)sulfonyl)-6-(methylsulfinyl)quinolin-4-yl)piperidin-4-yl)piperazin-1-yl)ethanol] | 10 | – | –
11 | CCCCCCCOc1ccc(S(=O)(=O)c2cnc3ccc(SC)cc3c2N2CCC(N3CCC(O)(c4ccccc4)CC3)CC2)cc1 [compound 262, 1′-(3-((4-(heptyloxy)phenyl)sulfonyl)-6-(methylthio)quinolin-4-yl)-4-phenyl-[1,4′-bipiperidin]-4-ol] | – | 20 | –
12 | CCOC(=O)c1ccc(N2CCN(c3c(S(=O)(=O)c4ccc(OC)cc4)cnc4cc(OC)c(OC)cc34)CC2)cc1 [compound 317, ethyl 4-(4-(6,7-dimethoxy-3-((4-methoxyphenyl)sulfonyl)quinolin-4-yl)piperazin-1-yl)benzoate] | – | – | 30
13 | COc1ccc(S(=O)(=O)c2cnc3cc(OC)c(OC)cc3c2N2CCC3C(COCCN3CC(C)C)C2)cc1 (centres unmarked) [compound 324, 7-(6,7-dimethoxy-3-((4-methoxyphenyl)sulfonyl)quinolin-4-yl)-1-isobutyldecahydropyrido[4,3-e][1,4]oxazepine] | – | – | 60
14 | CCCCCCCCCCCCCCOc1ccc(S(=O)(=O)c2cnc3ccc([S+](C)[O-])cc3c2N2CCC(N3CCN(CCO)CC3)CC2)cc1 (centres unmarked) [compound 344, 2-(4-(1-(6-(methylsulfinyl)-3-((4-(tetradecyloxy)phenyl)sulfonyl)quinolin-4-yl)piperidin-4-yl)piperazin-1-yl)ethan-1-ol] | 10 | – | –
15 | CCCCCCCCCCCCOc1ccc(S(=O)(=O)c2cnc3ccc([S+](C)[O-])cc3c2N2CCC(N3CCC(N4CCC(O)CC4)CC3)CC2)cc1 (centres unmarked) [compound 374, 1″-(3-((4-(dodecyloxy)phenyl)sulfonyl)-6-(methylsulfinyl)quinolin-4-yl)-[1,4′:1′,4″-terpiperidin]-4-ol] | 20 | – | –
16 | CCCCCCCCCCOc1ccc(S(=O)(=O)c2cnc3ccc([S+](C)[O-])cc3c2N2CCC(N3CCN(C)CC3)CC2)cc1 (centres unmarked) [compound 264, 3-((4-(decyloxy)phenyl)sulfonyl)-4-(4-(4-methylpiperazin-1-yl)piperidin-1-yl)-6-(methylsulfinyl)quinoline] | – | 20 | –
17 | CCCCCCCOc1ccc(S(=O)(=O)c2cnc3ccc(SC)cc3c2N2CCN(CCN3CCCC3)CC2)cc1 [compound 272, 3-((4-(heptyloxy)phenyl)sulfonyl)-6-(methylthio)-4-(4-(2-(pyrrolidin-1-yl)ethyl)piperazin-1-yl)quinoline] | 20 | – | –
18 | CCCCCCCCCCOc1ccc(S(=O)(=O)c2cnc3ccc([S+](C)[O-])cc3c2N2CCC(N3CCC(O)(c4ccccc4)CC3)CC2)cc1 (centres unmarked) [compound 270, 1′-(3-((4-(decyloxy)phenyl)sulfonyl)-6-(methylsulfinyl)quinolin-4-yl)-4-phenyl-[1,4′-bipiperidin]-4-ol] | 50 | – | –
19 | COc1ccc(S(=O)(=O)c2cnc3cc(OC)c(OC)cc3c2N2CCCN(CC3(O)CCCC3)CC2)cc1 [compound 325, 1-((4-(6,7-dimethoxy-3-((4-methoxyphenyl)sulfonyl)quinolin-4-yl)-1,4-diazepan-1-yl)methyl)cyclopentan-1-ol] | – | – | 30
20 | CCCCCCCOc1ccc(S(=O)(=O)c2cnc3ccc([S+](C)[O-])cc3c2N2CCN(CCN3CCCCC3)CC2)cc1 (centres unmarked) [compound 282, 3-((4-(heptyloxy)phenyl)sulfonyl)-6-(methylsulfinyl)-4-(4-(2-(piperidin-1-yl)ethyl)piperazin-1-yl)quinoline] | – | 10 | –
21 | CCCCOc1ccc(S(=O)(=O)c2cnc3ccc(OC(F)(F)F)cc3c2N2CCS(=O)(=O)CC2)cc1 [compound 198, 4-(3-((4-butoxyphenyl)sulfonyl)-6-(trifluoromethoxy)quinolin-4-yl)thiomorpholine 1,1-dioxide] | – | – | 30
22 | CCc1ccc(S(=O)(=O)c2cnc3ccc(OC(F)(F)F)cc3c2Nc2ccncc2)cc1 [compound 107, 3-((4-ethylphenyl)sulfonyl)-N-(pyridin-4-yl)-6-(trifluoromethoxy)quinolin-4-amine] | 0 | – | –
23 | CCCCCCCCCCCCOc1ccc(S(=O)(=O)c2cnc3ccc([S+](C)[O-])cc3c2N2CCC(N3CCC(N4CCN(C)CC4)CC3)CC2)cc1F (centres unmarked) [compound 370, 3-((4-(dodecyloxy)-3-fluorophenyl)sulfonyl)-4-(4-(4-methylpiperazin-1-yl)-[1,4′-bipiperidin]-1′-yl)-6-(methylsulfinyl)quinoline] | 20 | – | –
